Experimental data: US11845724B2, “USP30 inhibitors and uses thereof” (Vincere Biosciences, Inc., priority 2019, dated 2023)
Where a name gives a salt, the structure may show the parent alone.

Molecular target: recombinant USP30 (amino acids 57-517 of the human sequence) (Homo sapiens (Human), UniProt Q70CQ3)
Assay: In vitro USP30 biochemical assay (Ubiquitin-Rhodamine)
Conditions: USP30 IC50 μM (avg), Ubiquitin-Rhodamine substrate 25 nM, 1.5 nM recombinant USP30

Sequence of recombinant USP30 (amino acids 57-517 of the human sequence) (Q70CQ3 57-517): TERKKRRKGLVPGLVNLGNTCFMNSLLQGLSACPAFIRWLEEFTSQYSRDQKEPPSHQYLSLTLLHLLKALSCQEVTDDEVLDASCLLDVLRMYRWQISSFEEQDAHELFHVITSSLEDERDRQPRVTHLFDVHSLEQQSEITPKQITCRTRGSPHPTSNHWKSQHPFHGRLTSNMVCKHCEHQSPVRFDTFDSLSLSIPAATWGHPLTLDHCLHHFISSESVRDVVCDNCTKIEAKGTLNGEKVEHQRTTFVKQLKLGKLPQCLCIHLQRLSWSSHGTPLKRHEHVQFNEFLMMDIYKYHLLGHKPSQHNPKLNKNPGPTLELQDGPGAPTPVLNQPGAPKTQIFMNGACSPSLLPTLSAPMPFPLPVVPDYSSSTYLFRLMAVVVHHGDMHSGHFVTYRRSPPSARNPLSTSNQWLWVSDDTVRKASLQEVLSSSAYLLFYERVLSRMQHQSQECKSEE

| IC50 | Structure (SMILES) |
| --- | --- |
| 0.05 to 1 µM | CC(C)(C#N)NS(=O)(=O)c1ccc(NC(=O)[C@H](Cc2ccccc2)NC(=O)c2ccc(F)cc2)cc1 [Compound I-172, (S)-N-(1-(4-(N-(2-cyanopropan-2-yl)sulfamoyl)phenylamino)-1-oxo-3-phenylpropan-2-yl)-4-fluorobenzamide] |
| 0.05 to 1 µM | COCCC(C)(C)NS(=O)(=O)c1ccc(NC(=O)[C@H](Cc2ccccc2)NC(=O)c2ccc(F)cc2)cc1Cl [Compound I-171, (S)-N-(1-(3-chloro-4-(N-(4-methoxy-2-methylbutan-2-yl)sulfamoyl)phenylamino)-1-oxo-3-phenylpropan-2-yl)-4-fluorobenzamide] |
| 0.05 to 1 µM | C#CC(C)(C)NS(=O)(=O)c1ccc(NC(=O)[C@H](Cc2ccccc2)NC(=O)c2ccc(F)cc2)cc1OC [Compound I-181, (S)-4-fluoro-N-(1-(3-methoxy-4-(N-(2-methylbut-3-yn-2-yl)sulfamoyl)phenylamino)-1-oxo-3-phenylpropan-2-yl)benzamide] |
| 1 to 10 µM | CCNS(=O)(=O)c1ccc(NC(=O)[C@H](Cc2ccccc2)NC(=O)c2ccc(F)cc2)c(OC)c1 [Compound I-143, (S)-N-(1-(4-(N-ethylsulfamoyl)-2-methoxyphenylamino)-1-oxo-3-phenylpropan-2-yl)-4-fluorobenzamide] |
| 1 to 10 µM | COc1cc(S(=O)(=O)NC23CC(C2)C3)ccc1NC(=O)[C@H](Cc1ccccc1)NC(=O)c1ccc(F)cc1 [Compound I-145, (S)-N-(1-(4-(N-bicyclo[1.1.1]pentan-1-ylsulfamoyl)-2-methoxyphenylamino)-1-oxo-3-phenylpropan-2-yl)-4-fluorobenzamide] |

Further lines, the compound ahead of its results:

| Structure (SMILES) | IC50 |
| --- | --- |
| COCC(C)(C)NS(=O)(=O)c1ccc(NC(=O)[C@H](Cc2ccccc2)N(C)C(=O)c2ccc(F)cc2)cc1OC [Compound I-159, (S)-4-fluoro-N-(1-(3-methoxy-4-(N-(1-methoxy-2-methylpropan-2-yl)sulfamoyl)phenylamino)-1-oxo-3-phenylpropan-2-yl)-N-methylbenzamide] | 1 to 10 µM |
| O=C(N[C@@H](Cc1ccccc1)C(=O)Nc1ccc(S(=O)(=O)NC2COC2)c(Cl)c1)c1ccc(F)cc1 [Compound I-170, (S)-N-(1-(3-chloro-4-(N-oxetan-3-ylsulfamoyl)phenylamino)-1-oxo-3-phenylpropan-2-yl)-4-fluorobenzamide] | 0.05 to 1 µM |
| COc1cc(NC(=O)[C@H](Cc2ccccc2)NC(=O)c2ccc(F)cc2)ccc1S(=O)(=O)NC(C)(C)CN1CCOCC1 [Compound I-153, (S)-4-fluoro-N-(1-(3-methoxy-4-(N-(2-methyl-1-morpholinopropan-2-yl)sulfamoyl)phenylamino)-1-oxo-3-phenylpropan-2-yl)benzamide] | 0.05 to 1 µM |
| CC(C)(C#N)NS(=O)(=O)c1ccc(NC(=O)[C@H](Cc2ccccc2)NC(=O)c2ccc(F)cc2)cn1 [Compound I-176, (S)-N-(1-(6-(N-(2-cyanopropan-2-yl)sulfamoyl)pyridin-3-ylamino)-1-oxo-3-phenylpropan-2-yl)-4-fluorobenzamide] | 0.05 to 1 µM |
| CN(C)CCNS(=O)(=O)c1ccc(NC(=O)[C@H](Cc2ccccc2)NC(=O)c2ccc(F)cc2)cn1 [Compound I-109, (S)-N-(1-(6-(N-(2-(dimethylamino)ethyl)sulfamoyl)pyridin-3-ylamino)-1-oxo-3-phenylpropan-2-yl)-4-fluorobenzamide formate] | 1 to 10 µM |
| O=C(N[C@@H](Cc1ccccc1)C(=O)Nc1ccc(S(=O)(=O)NC23CC(C2)C3)c(Cl)c1)c1ccc(F)cc1 [Compound I-169, (S)-N-(1-(4-(N-bicyclo[1.1.1]pentan-1-ylsulfamoyl)-3-chlorophenylamino)-1-oxo-3-phenylpropan-2-yl)-4-fluorobenzamide] | 0.05 to 1 µM |
| COCC(C)(C)NS(=O)(=O)c1ccc(NC(=O)[C@H](Cc2ccccc2)N(C)C(=O)c2ccc(F)cc2)cc1 [Compound I-160, (S)-4-fluoro-N-(1-(4-(N-(1-methoxy-2-methylpropan-2-yl)sulfamoyl)phenylamino)-1-oxo-3-phenylpropan-2-yl)-N-methylbenzamide] | 1 to 10 µM |
| COc1cc(NC(=O)[C@H](Cc2ccccc2)NC(=O)c2ccc(F)cc2)ccc1S(=O)(=O)NC(C)(C)CCN1CCOCC1 [Compound I-154, (S)-4-fluoro-N-(1-(3-methoxy-4-(N-(2-methyl-4-morpholinobutan-2-yl)sulfamoyl)phenylamino)-1-oxo-3-phenylpropan-2-yl)benzamide] | 0.05 to 1 µM |

Same assay, conditions: read-out: USP30 IC50 μM (avg), Ubiquitin-Rhodamine substrate 25 nM, 1.5 nM recombinant USP30

| IC50 | Structure (SMILES) |
| --- | --- |
| > 10 µM | CN(C)S(=O)(=O)c1cccc2c(NC(=O)[C@H](Cc3ccccc3)NC(=O)c3ccc(F)cc3)cccc12 [Compound I-128, (S)-N-(1-(5-(N,N-dimethylsulfamoyl)naphthalen-1-ylamino)-1-oxo-3-phenylpropan-2-yl)-4-fluorobenzamide] |
| > 10 µM | O=C(NC1(C(=O)Nc2ccc(S(=O)(=O)NC3CC3)cc2)Cc2ccccc2C1)c1ccc(F)cc1 [Compound I-103, N-(4-(N-cyclopropylsulfamoyl)phenyl)-2-(4-fluorobenzamido)-2,3-dihydro-1H-indene-2-carboxamide] |

Second part, the compound before the results:

| Structure (SMILES) | IC50 |
| --- | --- |
| CC(C)(C)NS(=O)(=O)c1ccc(NC(=O)[C@H](Cc2ccccc2)NS(=O)(=O)c2ccc(F)cc2)cc1 [Compound I-165, (S)-N-(4-(N-tert-butylsulfamoyl)phenyl)-2-(4-fluorophenylsulfonamido)-3-phenylpropanamide] | > 10 µM |
| O=C(N[C@@H](Cc1ccccc1)C(=O)Nc1ccc(S(=O)(=O)N[C@H]2CCOC2)cc1)c1ccc(F)cc1 [Compound I-174, 4-fluoro-N-((S)-1-oxo-3-phenyl-1-(4-(N-((S)-tetrahydrofuran-3-yl)sulfamoyl)phenylamino)propan-2-yl)benzamide] | < 0.05 µM |
| CC(C)(C)NS(=O)(=O)c1ccc(NC(=O)[C@H](Cc2ccccc2)NC(=O)c2ccc(F)cc2)cc1C#N [Compound I-167, (S)-N-(1-(4-(N-tert-butylsulfamoyl)-3-cyanophenylamino)-1-oxo-3-phenylpropan-2-yl)-4-fluorobenzamide] | < 0.05 µM |
| COc1cc(NC(=O)[C@H](Cc2ccccc2)NC(=O)c2ccc(F)cc2)ccc1S(=O)(=O)N[C@H]1CCOC1 [Compound I-182, 4-fluoro-N-((S)-1-(3-methoxy-4-(N-((S)-tetrahydrofuran-3-yl)sulfamoyl)phenylamino)-1-oxo-3-phenylpropan-2-yl)benzamide] | < 0.05 µM |
| CC(C)(C)NS(=O)(=O)c1ccc(NC(=O)[C@H](Cc2ccccc2)NC(=O)C2COC2)cc1 [Compound I-86, (S)-N-(1-(4-(N-tert-butylsulfamoyl)phenylamino)-1-oxo-3-phenylpropan-2-yl)oxetane-3-carboxamide] | > 10 µM |
| CC(C)(C)NS(=O)(=O)c1ccc(NC(=O)C2Cc3ccncc3N2C(=O)c2ccc(F)cc2)cc1 (stereo not shown) [Compound I-56, N-(4-(N-tert-butylsulfamoyl)phenyl)-1-(4-fluorobenzoyl)-2,3-dihydro-1H-pyrrolo[2,3-c]pyridine-2-carboxamide] | > 10 µM |
| CN(C)S(=O)(=O)c1cccc2c(NC(=O)[C@H](Cc3ccccc3)NC(=O)C3CCCCC3)cccc12 [Compound I-127, (S)-N-(1-(5-(N,N-dimethylsulfamoyl)naphthalen-1-ylamino)-1-oxo-3-phenylpropan-2-yl)cyclohexanecarboxamide] | > 10 µM |
